The values below come from patent US7626021B2, “Fused ring heterocycle kinase modulators” (SGX Pharmaceuticals, Inc., priority 2004, dated 2009).

For one test, the system named is Ba/F3 cells transfected with T315I BCR-ABL. As to the kind of experiment: BCR-ABL phospho-ELISA in T315I cells or Ba/F3 T315I proliferation (XTT). Particulars: Mus musculus, BaF3, phospho-ELISA or 72 h XTT proliferation, read-out: P_ELISA_[T3151l_Cells] or Ba/F3 T315l proliferation (XTT). The format is cell-based. As for the experimental part:
MV4-11 and THP cells were maintained in Iscove's Modified Dulbecco's Medium supplemented with 10% fetal bovine serum (FBS) and penicillin/streptomycin, Ba/F3 cells were maintained in RPMI 1640 supplemented with 10% FBS, penicillin/streptomycin and 5 ng/ml recombinant mouse IL-3.
Compounds were tested in the following assays in duplicate.
96-well XTT assay: Cells were grown in growth media containing various concentrations of compounds (duplicates) on a 96-well plate for 72 hours at 37° C. The starting cell number was 5000-8000 cells per well and volume was 120 μl. At the end of the 72-hour incubation, 40 μl of XTT labeling mixture (50:1 solution of sodium 3′-[1-(phenylamino-carbonyl)-3,4-tetrazolium]-bis(4-methoxy-6-nitro) benzene sulfonic acid hydrate and Electron-coupling reagent: PMS (N-methyl dibenzopyrazine methyl sulfate) were added to each well of the plate. After an additional 2-6 hours of incubation at 37° C., the absorbance reading at 405 nm with background correction at 650 nm was measured with a spectrophotometer.
BCR-ABL Phospho-ELISA Assay
Cells (Ba/F3 cells transfected with WT BCR-ABL, other kinases, or T315I, Y253F, or other mutant forms of BCR-ABL) were grown in the absence of IL-3 at least ½ week before the assay. The day before assay, the cells were fed with fresh media so that at the time of assay the cells were in log phase. Ba/F3 cells that had been grown in the absence of IL-3 for at least ½ week were resuspended in RPMI 1640 so that each well of a 96-well plate would contain approximately 200,000 cells. Cells were distributed in a 96-well plate containing serially diluted concentrations of test compounds. Cells were typically incubated with or without test compounds for 60-120 minutes at 5% CO2, 37° C. The incubation was performed with or without other additives such as 10% FCS or 50% human plasma. After incubation of compounds, lysis buffer was added and incubated for 10-15 minutes; the lysate was cleared by centrifugation.
To make the ELISA plate, commercially available Anti-ABL antibodies (e.g. (Ab-3, Calbiochem OP20) were prepared at a concentration of 0.125 μg/ml in coating buffer (0.1M Na-carbonate, pH 9.5), and plated at 10 ml per plate ([…] 100 μg/ml Ab/10 ml). In a high binding multi-well plate, 100 μl Ab in coating buffer were added to each well, and each plate was covered with a plate seal and incubated overnight at 4° C.
Excess antibody was removed and the ELISA plate was washed 3-4 times with 200 μl of wash buffer (0.05% Tween in PBS, pH 7.4). 150 μl of lysate (see above) were transferred to the ELISA plate. Plates were sealed and incubated 2 hours at room temperature. The detection antibody (e.g. HRP conjugated anti-pTyr or unconjugated α-p-Y 4G10, Upstate) was prepared in assay diluent. The antibody was diluted 1:1000 (stock=2 μg/μl, 200 μg in 100 μl; f.c.=2 μg/ml) in assay diluent and 10 ml of diluted antibody per plate were added. The lysate was removed from the ELISA plates, and wells were washed four times with 200 μl of wash buffer per well. 100 μl of detection antibody was added to each well; the plate was covered, and incubated 1 hr at room temperature (21° C.). Excess detection antibody was removed from the ELISA plates, and the wells were washed four times with 200 μl of wash buffer per well.
If necessary, (i.e. for unconjugated anti-pTyr antibody) secondary antibody (goat anti-rabbit HRP) was diluted 1:3000 in assay diluent (3.33 μl per 10 ml diluent) and added at 10 ml of diluted antibody per plate. Excess secondary antibody was removed from the ELISA plate, and the plate was washed four times with 200 μl per well of wash buffer.
Substrate Reagent A and Substrate Reagent B (Pierce Cat#37070 SuperSignal ELISA Pico Chemiluminescent Substrate) were added immediately before use (10 ml resultant solution per plate). 100 μl substrate were added per well, mixed for 1 minute, and chemiluminescent signal was measured with a luminometer.
(In an ELISA, binding on a coated surface is turned into a signal by an enzyme label.)
Turning to `COc1ccccc1-c1n[nH]c2ncc(Br)cc12`, the IC50 is 1000 to 10000 nM.
As for `c1ccc(-c2n[nH]c3ncc(-c4ccc5[nH]ccc5c4)cc23)cc1`, the IC50 lay in the range of 1000 to 10000 nM.
Turning to `Oc1cccc(-c2cnc3[nH]nc(-c4ccccc4)c3c2)c1`, the IC50 is less than 1000 nM.
With `c1ccc(-c2n[nH]c3ncc(-c4cccnc4)cc23)cc1`, the IC50 was more than 10000 nM.
As for `COc1ccccc1-c1n[nH]c2ncc(-c3cccnc3)cc12`, the IC50 lay within 1000 to 10000 nM.
Consider `COc1ccccc1-c1n[nH]c2ncc(-c3cccc(C(=O)N(C)C)c3)cc12`, for which the IC50 is less than 1000 nM.
As for `COc1ccccc1-c1n[nH]c2ncc(-c3ccc(O)c(C(=O)N4CCOCC4)c3)cc12`, the IC50 was less than 1000 nM.
Take `CCOc1ccccc1-c1n[nH]c2ncc(-c3cccc(C(=O)N4CCOCC4)c3)cc12`: the IC50 lay in the range of 1000 to 10000 nM.
Consider `COc1ncc(-c2n[nH]c3ncc(-c4cccc(C(=O)N5CCOCC5)c4)cc23)c(OC)n1`, for which the IC50 lay within 1000 to 10000 nM.
On the same count and under the same terms, the figure for `COc1ccccc1-c1cnc2[nH]nc(-c3ccccc3OC)c2c1` is 1000 to 10000 nM; for `COc1ccccc1-c1n[nH]c2ncc(-c3cccc(C(=O)NC(C)C)c3)cc12` it is 1000 to 10000 nM.
On the same count and under the same terms, under `O=C(c1cccc(-c2cnc3[nH]nc(-c4ccc5cc[nH]c5c4)c3c2)c1)N1CCOCC1` stands 1000 to 10000 nM; under `COc1ccccc1-c1n[nH]c2ncc(-c3cccc(C(=O)N4CCN(C)CC4)c3)cc12`, less than 1000 nM; under `CCc1ccccc1-c1n[nH]c2ncc(-c3cccc(C(=O)N4CCOCC4)c3)cc12`, less than 1000 nM.
With `Cc1cc(F)ccc1-c1n[nH]c2ncc(-c3cccc(C(=O)N4CCOCC4)c3)cc12`, the IC50 lay within 1000 to 10000 nM.
For the compound `COc1c(F)cccc1-c1n[nH]c2ncc(-c3cccc(C(=O)N4CCOCC4)c3)cc12`, the IC50 was less than 1000 nM.
As for `Cc1ccsc1-c1n[nH]c2ncc(-c3cccc(C(=O)N4CCOCC4)c3)cc12`, the IC50 was less than 1000 nM.
With `COc1ccccc1-c1n[nH]c2ncc(-c3cccc(C(=O)N4CCC(CO)CC4)c3)cc12`, the IC50 was less than 1000 nM.
Turning to `O=C(c1cccc(-c2cnc3[nH]nc(-c4cccc5cccnc45)c3c2)c1)N1CCOCC1`, the IC50 is less than 1000 nM.
For `Cn1ccc2cc(-c3n[nH]c4ncc(-c5cccc(C(=O)N6CCOCC6)c5)cc34)ccc21`, the IC50 lay in the range of 1000 to 10000 nM.
Consider `O=C(c1cccc(-c2cnc3[nH]nc(-c4ccncc4Cl)c3c2)c1)N1CCOCC1`, for which the IC50 lay within 1000 to 10000 nM.
For the compound `COc1ccccc1-c1n[nH]c2ncc(-c3cccc(C(=O)N4CCCC4)c3)cc12`, the IC50 was less than 1000 nM.
`COc1ccccc1-c1n[nH]c2ncc(-c3ccc(C(=O)N4CCCC4)cc3)cc12`: the IC50 is 1000 to 10000 nM.
In the case of `COc1ccccc1-c1n[nH]c2ncc(-c3ccc(C(=O)NC4CC4)cc3)cc12`, the IC50 was less than 1000 nM.
As to `COc1ccccc1-c1n[nH]c2ncc(-c3cnc4[nH]n(C)c(=O)c4c3)cc12`, the IC50 lay in the range of 1000 to 10000 nM.
Turning to `COc1ccccc1-c1n[nH]c2ncc(-c3cccc(S(=O)(=O)NC4CC4)c3)cc12`, the IC50 is less than 1000 nM.
The same measure, in the same setting: under `COc1ccccc1-c1n[nH]c2ncc(-c3cccc(C(=O)N4CCN(CCN(C)C)CC4)c3)cc12` stands less than 1000 nM.
As to `CCN1CCN(C(=O)c2cccc(-c3cnc4[nH]nc(-c5cc(F)ccc5OC)c4c3)c2)CC1`, the IC50 was less than 1000 nM.
For the compound `COc1cc(-c2cnc3[nH]cc(-c4ccc(C)cc4)c3n2)ccc1O`, the IC50 is less than 1000 nM.
As to `COc1ccccc1-c1n[nH]c2ncc(-c3ccc(C(=O)N4CCN(C)CC4)cc3)cc12`, the IC50 was less than 1000 nM.
With `COc1cc(-c2cnc3[nH]nc(-c4ccccc4)c3c2)ccc1O`, the IC50 was in the range of 1000 to 10000 nM.
In the case of `COc1ccccc1-c1n[nH]c2ncc(-c3ccc(C(=O)N4CCOCC4)cc3)cc12`, the IC50 is 1000 to 10000 nM.
Consider `COc1ccccc1-c1c[nH]c2ncc(-c3cccc(C(=O)N(C)C)c3)nc12`, for which the IC50 was more than 10000 nM.

The next test addresses T1, PDK1 kinase (Homo sapiens, UniProt O15530).
T1 construct: 6x Histidine tag (TEV-cleavable) (cleaved yes); made in house; host or cells: Sf9 insect cells
T1 sequence (O15530 1-556): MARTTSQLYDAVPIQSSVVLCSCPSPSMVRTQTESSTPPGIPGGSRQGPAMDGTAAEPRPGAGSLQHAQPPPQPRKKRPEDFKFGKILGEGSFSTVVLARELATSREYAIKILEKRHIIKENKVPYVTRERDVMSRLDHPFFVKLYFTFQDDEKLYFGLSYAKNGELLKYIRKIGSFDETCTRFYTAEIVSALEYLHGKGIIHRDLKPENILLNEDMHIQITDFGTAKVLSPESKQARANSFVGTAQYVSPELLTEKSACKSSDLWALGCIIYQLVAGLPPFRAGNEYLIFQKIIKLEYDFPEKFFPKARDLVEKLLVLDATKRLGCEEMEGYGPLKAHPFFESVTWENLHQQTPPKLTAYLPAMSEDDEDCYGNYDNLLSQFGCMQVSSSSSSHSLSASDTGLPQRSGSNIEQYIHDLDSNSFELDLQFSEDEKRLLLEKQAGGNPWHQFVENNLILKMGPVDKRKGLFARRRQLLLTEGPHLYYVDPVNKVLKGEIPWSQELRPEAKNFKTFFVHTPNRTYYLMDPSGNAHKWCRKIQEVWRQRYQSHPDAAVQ
As to the kind of experiment: PDK1 luminescence-based enzyme assay (Kinase-Glo). Format: biochemical.
Conditions: not given
The text has this:
In addition to the c-Abl PK/LDH coupled assay (above), homogeneous luminescence-based inhibitor screening assays were developed for c-Abl, MET, AurA, and PDK1 kinases (among others). Each of these assays made use of an ATP depletion assay (Kinase-Glo™, Promega Corporation, Madison, Wis.) to quantitate kinase activity. The Kinase-Glo™ format uses a thermostable luciferase to generate luminescent signal from ATP remaining in solution following the kinase reaction. The luminescent signal is inversely correlated with the amount of kinase activity.
PDK1 Luminescence-Based Enzyme Assay
Standard Assay Setup for 384-well format (20 μl kinase reaction, 40 μl detection reaction): 10 mM MgCl2; 0.01 mM PDKtide; 1 μl test compound (in DMSO); 0.1 μg/ml PDK1 kinase; 5 μM ATP; 1 mM MgCl2; 100 mM HEPES+0.01% Brij buffer. Positive controls contained DMSO with no test compound. Negative controls contained 10 μM staurosporine. The kinase reactions were initiated at time t=0 by the addition of ATP. Kinase reactions were incubated at 21° C. for 40 min, then 20 μl of Kinase-Glo™ reagent were added to each well to quench the kinase reaction and initiate the luminescence reaction. After a 20 min incubation at 21° C., the luminescence was detected in a plate-reading luminometer.
A general note: In Kinase-Glo more light means more ATP remaining.
Compound `COc1ccccc1-c1n[nH]c2ncc(-c3ccc(C(=O)N4CCCC4)cc3)cc12` returned an IC50 of 1000 to 10000 nM.
Still for that read-out and setting: under `COc1ccccc1-c1n[nH]c2ncc(-c3ccc(C(=O)N4CCN(C)CC4)cc3)cc12` stands 1000 to 10000 nM.
`COc1cc(-c2cnc3[nH]nc(-c4ccccc4)c3c2)ccc1O` gave an IC50 of 1000 to 10000 nM.
In the case of `COc1ccccc1-c1n[nH]c2ncc(-c3ccc(C(=O)N4CCCCC4)cc3)cc12`, the IC50 was in the range of 1000 to 10000 nM.
In turn, `COc1ccccc1-c1n[nH]c2ncc(-c3ccc(C(=O)N4CCOCC4)cc3)cc12` returned an IC50 of 1000 to 10000 nM.

Still in this test, the particulars now being: read-out: PDK1 IC50.
As to `COc1cc(-c2cnc3[nH]cc(-c4ccc(C)cc4)c3n2)ccc1O`, the IC50 was 1000 to 10000 nM.
